Test results from PubChem BioAssay (NCI).
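Where inhibition never reached the appropriate level, the endpoint shown equals the highest concentration tested. Otherwise, values were interpolated linearly from a five-concentration, 48-hour dose response in 96-well plates. TGI: concentration producing complete growth inhibition.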

Assays:
Assay in all cases: NCI-60 cell line screen, 48 h
OVCAR-3 ovarian = tested on: OVCAR-3 ovarian
NCI-H460 lung = tested on: NCI-H460 lung
SN12C renal = tested on: SN12C renal
KM12 colon = tested on: KM12 colon
NCI-H522 lung = tested on: NCI-H522 lung
CCRF-CEM leukemia = tested on: CCRF-CEM leukemia
MDA-MB-435 = tested on: MDA-MB-435
TK-10 renal = tested on: TK-10 renal
U251 CNS = tested on: U251 CNS
SF-268 CNS = tested on: SF-268 CNS
A498 renal = tested on: A498 renal
UACC-257 melanoma = tested on: UACC-257 melanoma
BT-549 breast = tested on: BT-549 breast
EKVX NSCLC = tested on: EKVX NSCLC
OVCAR-5 ovarian = tested on: OVCAR-5 ovarian
A549 NSCLC = tested on: A549 NSCLC
MCF7 breast = tested on: MCF7 breast
NCI/ADR-RES ovarian = tested on: NCI/ADR-RES ovarian
SW-620 colon = tested on: SW-620 colon
SK-MEL-2 melanoma = tested on: SK-MEL-2 melanoma
HCT-15 colon = tested on: HCT-15 colon
UO-31 renal = tested on: UO-31 renal
HT29 colon = tested on: HT29 colon
MALME-3M melanoma = tested on: MALME-3M melanoma
OVCAR-4 ovarian = tested on: OVCAR-4 ovarian
RXF 393 renal = tested on: RXF 393 renal
MDA-MB-231 breast = tested on: MDA-MB-231 breast
CAKI-1 renal = tested on: CAKI-1 renal
786-0 renal = tested on: 786-0 renal
PC-3 prostate = tested on: PC-3 prostate
NCI-H226 lung = tested on: NCI-H226 lung
OVCAR-8 ovarian = tested on: OVCAR-8 ovarian
SF-295 CNS = tested on: SF-295 CNS
IGROV1 ovarian = tested on: IGROV1 ovarian
SK-MEL-28 melanoma = tested on: SK-MEL-28 melanoma
HL-60(TB) leukemia = tested on: HL-60(TB) leukemia
SK-OV-3 ovarian = tested on: SK-OV-3 ovarian
RPMI-8226 leukemia = tested on: RPMI-8226 leukemia
K-562 leukemia = tested on: K-562 leukemia
DU-145 prostate = tested on: DU-145 prostate
COLO 205 colon = tested on: COLO 205 colon
HCC-2998 colon = tested on: HCC-2998 colon
SF-539 CNS = tested on: SF-539 CNS
M14 melanoma = tested on: M14 melanoma
HOP-62 NSCLC = tested on: HOP-62 NSCLC
SK-MEL-5 melanoma = tested on: SK-MEL-5 melanoma
NCI-H23 lung = tested on: NCI-H23 lung
MDA-N = tested on: MDA-N
UACC-62 melanoma = tested on: UACC-62 melanoma
SNB-19 CNS = tested on: SNB-19 CNS
ACHN renal = tested on: ACHN renal
HOP-92 NSCLC = tested on: HOP-92 NSCLC
LOX IMVI melanoma = tested on: LOX IMVI melanoma
MOLT-4 leukemia = tested on: MOLT-4 leukemia
T-47D breast = tested on: T-47D breast
HS 578T breast = tested on: HS 578T breast
HCT-116 colon = tested on: HCT-116 colon
SNB-75 CNS = tested on: SNB-75 CNS

C/C(=N/NC(=S)N1CCCCC1)c1ccccc1O
TGI (OVCAR-3 ovarian): > 31.6 µM
TGI (NCI-H460 lung): > 31.6 µM
TGI (SN12C renal): > 31.6 µM
TGI (KM12 colon): > 31.6 µM
TGI (NCI-H522 lung): > 31.6 µM
TGI (CCRF-CEM leukemia): > 31.6 µM
TGI (MDA-MB-435): > 31.6 µM
TGI (TK-10 renal): > 31.6 µM
TGI (U251 CNS): > 31.6 µM
TGI (SF-268 CNS): > 31.6 µM
TGI (A498 renal): > 100 µM
TGI (UACC-257 melanoma): > 31.6 µM
TGI (BT-549 breast): > 100 µM
TGI (EKVX NSCLC): > 31.6 µM
TGI (OVCAR-5 ovarian): > 31.6 µM
TGI (A549 NSCLC): > 31.6 µM
TGI (MCF7 breast): > 31.6 µM
TGI (NCI/ADR-RES ovarian): > 31.6 µM
TGI (SW-620 colon): > 31.6 µM
TGI (SK-MEL-2 melanoma): > 31.6 µM
TGI (HCT-15 colon): > 31.6 µM
TGI (UO-31 renal): > 31.6 µM
TGI (HT29 colon): > 31.6 µM
TGI (MALME-3M melanoma): > 31.6 µM
TGI (OVCAR-4 ovarian): > 31.6 µM
TGI (RXF 393 renal): > 31.6 µM
TGI (MDA-MB-231 breast): > 100 µM
TGI (CAKI-1 renal): > 31.6 µM
TGI (786-0 renal): > 31.6 µM
TGI (PC-3 prostate): > 31.6 µM
TGI (NCI-H226 lung): > 31.6 µM
TGI (OVCAR-8 ovarian): > 31.6 µM
TGI (SF-295 CNS): > 31.6 µM
TGI (IGROV1 ovarian): > 100 µM
TGI (SK-MEL-28 melanoma): > 31.6 µM
TGI (HL-60(TB) leukemia): > 31.6 µM
TGI (SK-OV-3 ovarian): > 31.6 µM
TGI (RPMI-8226 leukemia): > 31.6 µM
TGI (K-562 leukemia): > 31.6 µM
TGI (DU-145 prostate): > 31.6 µM
TGI (COLO 205 colon): > 31.6 µM
TGI (HCC-2998 colon): > 31.6 µM
TGI (SF-539 CNS): > 100 µM
TGI (M14 melanoma): > 31.6 µM
TGI (HOP-62 NSCLC): > 100 µM
TGI (SK-MEL-5 melanoma): > 100 µM
TGI (NCI-H23 lung): > 31.6 µM
TGI (MDA-N): > 31.6 µM
TGI (UACC-62 melanoma): > 31.6 µM
TGI (SNB-19 CNS): > 31.6 µM
TGI (ACHN renal): > 31.6 µM
TGI (HOP-92 NSCLC): > 31.6 µM
TGI (LOX IMVI melanoma): > 31.6 µM
TGI (MOLT-4 leukemia): > 31.6 µM
TGI (T-47D breast): > 31.6 µM
TGI (HS 578T breast): > 31.6 µM

CCCCOC(=O)C(NC(C(=O)OCCCC)c1cc(C(C)(C)C)c(O)c(C(C)(C)C)c1)c1cc(C(C)(C)C)c(O)c(C(C)(C)C)c1 (stereo unspecified)
TGI (OVCAR-3 ovarian): > 100 µM
TGI (SN12C renal): > 100 µM
TGI (KM12 colon): > 100 µM
TGI (NCI-H522 lung): > 100 µM
TGI (CCRF-CEM leukemia): > 100 µM
TGI (MDA-MB-435): > 100 µM
TGI (TK-10 renal): > 100 µM
TGI (U251 CNS): > 100 µM
TGI (SF-268 CNS): > 100 µM
TGI (A498 renal): > 100 µM
TGI (UACC-257 melanoma): > 100 µM
TGI (BT-549 breast): > 100 µM
TGI (EKVX NSCLC): > 100 µM
TGI (OVCAR-5 ovarian): > 100 µM
TGI (A549 NSCLC): > 100 µM
TGI (MCF7 breast): > 100 µM
TGI (NCI/ADR-RES ovarian): > 100 µM
TGI (SW-620 colon): > 100 µM
TGI (SK-MEL-2 melanoma): > 100 µM
TGI (HCT-15 colon): > 100 µM
TGI (UO-31 renal): > 100 µM
TGI (HT29 colon): > 100 µM
TGI (MALME-3M melanoma): > 100 µM
TGI (OVCAR-4 ovarian): > 100 µM
TGI (MDA-MB-231 breast): > 100 µM
TGI (CAKI-1 renal): > 100 µM
TGI (786-0 renal): > 100 µM
TGI (PC-3 prostate): > 100 µM
TGI (NCI-H226 lung): > 100 µM
TGI (OVCAR-8 ovarian): > 100 µM
TGI (SF-295 CNS): > 100 µM
TGI (IGROV1 ovarian): > 100 µM
TGI (SK-MEL-28 melanoma): > 100 µM
TGI (HL-60(TB) leukemia): > 100 µM
TGI (SK-OV-3 ovarian): > 100 µM
TGI (RPMI-8226 leukemia): > 100 µM
TGI (K-562 leukemia): > 100 µM
TGI (DU-145 prostate): > 100 µM
TGI (COLO 205 colon): > 100 µM
TGI (SF-539 CNS): > 100 µM
TGI (M14 melanoma): > 100 µM
TGI (HOP-62 NSCLC): > 100 µM
TGI (SK-MEL-5 melanoma): > 100 µM
TGI (NCI-H23 lung): > 100 µM
TGI (HCT-116 colon): > 100 µM
TGI (MDA-N): > 100 µM
TGI (UACC-62 melanoma): > 100 µM
TGI (SNB-19 CNS): > 100 µM
TGI (ACHN renal): > 100 µM
TGI (SNB-75 CNS): > 100 µM
TGI (HOP-92 NSCLC): > 100 µM
TGI (LOX IMVI melanoma): > 100 µM
TGI (MOLT-4 leukemia): > 100 µM
TGI (T-47D breast): > 100 µM
TGI (HS 578T breast): > 100 µM
